Measured values: ChEMBL document CHEMBL1201862, “PubChem BioAssay data set” (2004)
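Test compounds were applied to cells in 96-well plates for 48 hours at 5 doses. GI50 = concentration required for 50% inhibition of growth.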 Calls of active or inactive are those of the source. Cut-off read from the data, not from the text of the source: active = GI50 up to about 1.1 µM and inactive = higher.

Tests used:
Assay in all cases: NCI tumour cell line growth inhibition, 48 h
HCT-15 = test system: HCT-15
SK-MEL-5 = test system: SK-MEL-5
SN12C = test system: SN12C
CCRF-CEM = test system: CCRF-CEM
A549 = test system: A549
UACC-62 = test system: UACC-62
SK-OV-3 = test system: SK-OV-3
SK-MEL-28 = test system: SK-MEL-28
HT-29 = test system: HT-29
U-251 = test system: U-251
NCI-H460 = test system: NCI-H460
CAKI-1 = test system: CAKI-1
OVCAR-5 = test system: OVCAR-5
HL-60 = test system: HL-60
NCI/ADR-RES = test system: NCI/ADR-RES
COLO 205 = test system: COLO 205
NCI-H226 = test system: NCI-H226
PC-3 = test system: PC-3
OVCAR-3 = test system: OVCAR-3
SR = test system: SR

Compound | GI50 (HCT-15) | GI50 (SK-MEL-5) | GI50 (SN12C) | GI50 (CCRF-CEM) | GI50 (A549) | GI50 (UACC-62) | GI50 (SK-OV-3) | GI50 (SK-MEL-28) | GI50 (HT-29) | GI50 (U-251) | GI50 (NCI-H460) | GI50 (CAKI-1) | GI50 (OVCAR-5) | GI50 (HL-60) | GI50 (NCI/ADR-RES) | GI50 (COLO 205) | GI50 (NCI-H226) | GI50 (PC-3) | GI50 (OVCAR-3) | GI50 (SR)
CC(C)(C)c1ccc2c(c1)C(=O)c1ccccc1C2=O | 39.7 µM | 18.1 µM (inactive) | 85.3 µM (inactive) | 57.1 µM (inactive) | 38.6 µM (inactive) | 42 µM (inactive) | > 100 µM (inactive) | 98.2 µM (inactive) | 27.2 µM (inactive) | 50 µM (inactive) | 31.3 µM (inactive) | > 100 µM (inactive) | 82.6 µM (inactive) | 64.6 µM (inactive) | 32.7 µM (inactive) | 25 µM (inactive) | 35.5 µM (inactive) | 37.7 µM (inactive) | > 100 µM (inactive) | 
Cc1ccc(S(=O)(=O)Oc2cc(N)c3c(n2)CCC3)cc1 | > 100 µM | 39 µM (inactive) | > 100 µM (inactive) | 64.1 µM (inactive) | > 100 µM (inactive) | 97.5 µM (inactive) | > 100 µM (inactive) | > 100 µM (inactive) | 48.3 µM (inactive) | > 100 µM (inactive) | > 100 µM (inactive) | > 100 µM (inactive) | > 100 µM (inactive) | 43.2 µM (inactive) | 79.8 µM (inactive) | 53.5 µM (inactive) | 36.8 µM (inactive) | > 100 µM (inactive) | 37.9 µM (inactive) | 
O=c1[nH]c(=O)c2ncn(-c3ccc([N+](=O)[O-])cn3)c2[nH]1 | > 100 µM | > 100 µM (inactive) | > 100 µM (inactive) | > 100 µM (inactive) | > 100 µM (inactive) | 74.1 µM (inactive) | > 100 µM (inactive) | > 100 µM (inactive) | > 100 µM (inactive) | > 100 µM (inactive) | > 100 µM (inactive) | > 100 µM (inactive) | > 100 µM (inactive) | > 100 µM (inactive) | > 100 µM (inactive) | > 100 µM (inactive) | > 100 µM (inactive) | > 100 µM (inactive) | > 100 µM (inactive) | 
O=C(Cn1c2ccc(Br)cc2c2nc3ccccc3nc21)NNC(=S)NC1CCCCC1 | 12 µM | 14.2 µM (inactive) | 21.3 µM (inactive) | 0.794 µM (active) | 10.6 µM (inactive) | 15.6 µM (inactive) | 21.7 µM (inactive) | 14.7 µM (inactive) | 15.5 µM (inactive) | 15 µM (inactive) | 12.4 µM (inactive) | 18 µM (inactive) | 19.5 µM (inactive) |  | 17.3 µM (inactive) | 13.2 µM (inactive) | 15.4 µM (inactive) | 11.7 µM (inactive) | 10.8 µM (inactive) | 
O=c1sc2c(s1)-c1sc(=O)sc1SS2 | 18.7 µM | > 56.5 µM (inactive) | > 100 µM (inactive) | > 54.8 µM (inactive) | > 100 µM (inactive) | > 100 µM (inactive) | > 100 µM (inactive) | > 100 µM (inactive) | > 42.1 µM (inactive) | > 31.6 µM (inactive) | > 100 µM (inactive) | > 100 µM (inactive) | 34.1 µM (inactive) | > 100 µM (inactive) | 26.7 µM (inactive) | > 46 µM (inactive) | 38.6 µM (inactive) | > 100 µM (inactive) | > 100 µM (inactive) | 
CC(=O)C1=C(C)N2C(=NC3=C(CCc4ccccc43)C2c2ccc(F)cc2)S1 (centres undefined) |  | 30.1 µM (inactive) | 51.3 µM (inactive) | 40.3 µM (inactive) | > 100 µM (inactive) | 78.2 µM (inactive) | > 100 µM (inactive) | > 100 µM (inactive) | 84.1 µM (inactive) | 84.7 µM (inactive) |  |  | > 100 µM (inactive) | 28.4 µM (inactive) | 37.3 µM (inactive) | 58.1 µM (inactive) | > 100 µM (inactive) | 89.7 µM (inactive) | 67.9 µM (inactive) | 
CCOc1nnnc2[nH]cnc12 | > 100 µM | > 100 µM (inactive) | > 100 µM (inactive) |  | > 100 µM (inactive) | > 100 µM (inactive) | > 100 µM (inactive) | > 100 µM (inactive) | > 100 µM (inactive) | > 100 µM (inactive) | > 100 µM (inactive) | > 100 µM (inactive) | > 100 µM (inactive) | > 100 µM (inactive) | > 100 µM (inactive) | > 100 µM (inactive) | > 100 µM (inactive) | > 100 µM (inactive) | > 100 µM (inactive) | 
COc1ccc(/C=C2\NC(=S)N(CN3CCOCC3)C2=O)cc1 | > 100 µM | > 100 µM (inactive) | > 100 µM (inactive) | > 100 µM (inactive) | > 100 µM (inactive) | > 100 µM (inactive) | > 100 µM (inactive) | > 100 µM (inactive) | > 100 µM (inactive) | > 100 µM (inactive) |  |  | > 100 µM (inactive) |  | > 100 µM (inactive) | > 100 µM (inactive) | > 100 µM (inactive) | > 100 µM (inactive) | > 100 µM (inactive) | > 100 µM (inactive)
O=C(/C(=N\Nc1ccc([N+](=O)[O-])cc1[N+](=O)[O-])NC12CC3CC(CC(C3)C1)C2)C(Br)C(=O)c1ccccc1 (centres undefined) | 4.99 µM | 1.08 µM (active) | 3.12 µM (inactive) | 2.67 µM (inactive) | 3.33 µM (inactive) | 3.38 µM (inactive) | 2.75 µM (inactive) | 9.31 µM (inactive) | 4.45 µM (inactive) | 2.85 µM (inactive) | 3.61 µM (inactive) | 3.2 µM (inactive) | 5.4 µM (inactive) | 2.94 µM (inactive) | 3.23 µM (inactive) | 2.18 µM (inactive) | 2.52 µM (inactive) | 2.61 µM (inactive) | 2.54 µM (inactive) | 
COc1ccc2cc(CNCCCCCCNC(=O)Nc3cccc4ccccc34)ccc2c1 | > 100 µM | > 100 µM (inactive) | > 100 µM (inactive) | > 100 µM (inactive) | > 100 µM (inactive) | > 100 µM (inactive) | > 100 µM (inactive) | > 100 µM (inactive) | > 100 µM (inactive) | > 100 µM (inactive) | > 100 µM (inactive) | > 100 µM (inactive) | > 100 µM (inactive) | > 100 µM (inactive) |  | > 100 µM (inactive) | > 100 µM (inactive) | > 100 µM (inactive) | > 100 µM (inactive) | > 100 µM (inactive)
Cc1ccc(-n2c(Cn3nnc(-c4cccnc4)n3)nn(C3OC(COC(=O)c4ccccc4)C(OC(=O)c4ccccc4)C3OC(=O)c3ccccc3)c2=S)cc1 (centres undefined) | > 100 µM | > 100 µM (inactive) | > 100 µM (inactive) | > 100 µM (inactive) | > 100 µM (inactive) | > 100 µM (inactive) | > 100 µM (inactive) | > 100 µM (inactive) | > 100 µM (inactive) | > 100 µM (inactive) | > 100 µM (inactive) | > 100 µM (inactive) | > 100 µM (inactive) |  | > 100 µM (inactive) | > 100 µM (inactive) | > 100 µM (inactive) | > 100 µM (inactive) | > 100 µM (inactive) | 
COc1cc(Nc2nnc3n2S(=O)(=O)c2cc(C)c(Cl)cc2S3)cc(OC)c1 | 17.7 µM | 9.29 µM (inactive) | 24.8 µM (inactive) | 4.29 µM (inactive) | 6.62 µM (inactive) | 18.1 µM (inactive) | 14.2 µM (inactive) | 26 µM (inactive) | 12.4 µM (inactive) | 10.9 µM (inactive) | 23.8 µM (inactive) | 8.55 µM (inactive) | 62.2 µM (inactive) | 8.69 µM (inactive) | 15.6 µM (inactive) | 13.2 µM (inactive) | 16.4 µM (inactive) | 8.83 µM (inactive) | 5.19 µM (inactive) | 
O=C(O)C(F)(OC(F)(F)C(F)(F)C(F)(F)F)C(F)(F)F (centres undefined) | > 100 µM | > 100 µM (inactive) | > 100 µM (inactive) |  | > 100 µM (inactive) | > 100 µM (inactive) | > 100 µM (inactive) | > 100 µM (inactive) | > 100 µM (inactive) | > 100 µM (inactive) | > 100 µM (inactive) | > 100 µM (inactive) | > 100 µM (inactive) | > 100 µM (inactive) | > 100 µM (inactive) | > 100 µM (inactive) | > 100 µM (inactive) | > 100 µM (inactive) | > 100 µM (inactive) | 
CCCCCCCCCCCCOP(=O)(O)OP(=O)(O)OCC1OC(n2ccc(N)nc2=O)CC1O (centres undefined) | > 100 µM | > 100 µM (inactive) | > 100 µM (inactive) | > 100 µM (inactive) | > 100 µM (inactive) | > 100 µM (inactive) | > 100 µM (inactive) | > 100 µM (inactive) | > 100 µM (inactive) | > 100 µM (inactive) | > 100 µM (inactive) | > 100 µM (inactive) | > 100 µM (inactive) | > 100 µM (inactive) | > 100 µM (inactive) | > 100 µM (inactive) | > 100 µM (inactive) | > 100 µM (inactive) | > 100 µM (inactive) | 
COc1cc(O)c2c(c1)C(=O)c1cc3c(c(O)c1C2=O)C(OC1OC(C)C(OC)C(O)C1OC)C(OC)C(C)(O)C3=O (centres undefined) | 3.15 µM | 1.68 µM (inactive) |  | 4.1 µM (inactive) | 3.55 µM (inactive) |  | 13.3 µM (inactive) | 7.01 µM (inactive) | 3.37 µM (inactive) | 5.33 µM (inactive) | 2.72 µM (inactive) | 3.04 µM (inactive) | 16.1 µM (inactive) | 2.79 µM (inactive) |  | 3.09 µM (inactive) | 2.59 µM (inactive) | 3.36 µM (inactive) | 2.84 µM (inactive) | 1.64 µM (inactive)
